Laboratory results taken from ChEMBL document CHEMBL1201862, “PubChem BioAssay data set” (2004).
The source made the active and inactive calls.

Legend:
BJ [1] = assay: cytotoxicity toward BJ-TERT-LT-ST fibroblasts, dose response, cell-based, RAS-independent, luminescence (AID 1935); assay type: functional; details: Homo sapiens;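 also: BJ fibroblasts immortalized with TERT plus LT and ST oncogenes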
BJ [2] = assay: cytotoxicity toward Ras-transformed BJeLR fibroblasts, dose response, cell-based, alamar blue fluorescence, cherrypicked samples (AID 2631); assay type: functional; details: Homo sapiens;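 also: confirmatory dose-response assay in RAS-dependent BJ fibroblasts engineered with TERT, LT and ST, with cytotoxicity read by fluorescence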
BJ [3] = assay: cytotoxicity toward BJ-TERT fibroblasts, dose response, cell-based, RAS-independent, luminescence (AID 1933); assay type: functional; details: Homo sapiens
Vero [4] = assay: cells; assay type: functional; details: Chlorocebus sabaeus
[5] = cytotoxicity toward DRD oncogenic fibroblasts, dose response, cell-based, non-viral oncogenic, luminescence (AID 1934); assay type: functional; details: Homo sapiens
BJ [6] = assay: cells; assay type: functional, cell-based; details: Homo sapiens
HEK293 = assay: inhibitors of LMP1-driven NF-kB reporter, dose response, cell-based, HEK293, luciferase, cherry-pick (AID 588343); assay type: functional; details: Homo sapiens
[7] = system: Streptococcus sp. 'group A'; assay: growth inhibition of control SK(-) GAS strain, dose response, counter-screen for streptokinase expression inhibitor project, luminescence, kanamycin, BacTiterGlo, confirmation (AID 1900); assay type: functional, organism-based
[8] = Shn3 3'UTR reporter inhibitors, dose response, cell-based, Clone20 osteoblasts, firefly luciferase, cherry-picked (AID 624132); assay type: functional;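 also: firefly luciferase luminescence from reporter carrying the Shn3 3'UTR in osteoblasts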
Fatty acid synthase [9] = molecular target: T1, Fatty acid synthase (Homo sapiens, UniProt P49327); assay: FAS thioesterase domain inhibitors, dose response, biochemical, kinetic fluorescence intensity (AID 624326); assay type: functional;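 also: rate of fluorescence rise from hydrolysis of a fluorogenic O-methyl fluorescein ester substrate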
[10] = control 3'UTR Renilla luciferase suppression, dose response, counter-screen for Shn3 inhibitor project, cell-based, Clone20-Shn3RL, cherry-picked (AID 624133); assay type: functional
Vero [11] = assay: Vero cell cytotoxicity, cytotoxicity control for flavivirus capping enzyme inhibitors (AID 588742); assay type: functional; details: Chlorocebus sabaeus
[12] = molecular target: Luciferin 4-monooxygenase (Photinus pyralis, UniProt P08659); assay: firefly luciferase enzyme inhibitors, dose response, biochemical, luminescence (AID 1891)
Paired box protein Pax-8 = Paired box protein Pax-8 (Homo sapiens, UniProt Q06710); assay: inhibitors of PAX8-driven TPO luciferase reporter, dose response, RMG-I cells, cherry-pick (AID 687027); assay type: functional, cell-based;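 also: luciferase reporter driven by Pax8 target thyroperoxidase promoter measured by SteadyGlo luminescence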
Genome polyprotein = Genome polyprotein (dengue virus type 2, UniProt P29990); assay: Dengue-2 NS5 methyltransferase inhibitors, primary screen, biochemical, confirmation dose response (AID 588689); assay type: functional
[13] = non-specific cell cytotoxicity, dose response, cytotoxicity control for PAX8 inhibitor project, plate reader, dry powder samples (AID 743021); assay type: functional, cell-based
Fatty acid synthase [14] = molecular target: T1, Fatty acid synthase; assay: FAS thioesterase domain inhibitors, dose response, biochemical, endpoint fluorescence intensity, uHTS hits (AID 624327); assay type: functional;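 also: fluorescence from hydrolysis of an O-methyl fluorescein acyl ester substrate by the enzyme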
Large T antigen = Large T antigen (Simian virus 40, UniProt P03070); assay type: functional, Betapolyomavirus macacae;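 also: Confirmatory-stage PubChem screen for compounds that inhibit SV40 T antigen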
[15] = Luminescence Cell-Based Dose Confirmation HTS to Identify Inhibitors of Platelet Dense Granule Release. [Related pubchem assays: 1663 (Primary HTS), 1678 (Summary of Project)]; assay type: functional
[16] = HepG2 cell cytotoxicity, dose response, cytotoxicity control for Shn3 inhibitor project, CellTiter-Glo, cherry-picked (AID 624134); assay type: functional, cell-based
Streptococcus = assay: Group A Streptococcus viability loss, dose response, counter-screen for streptokinase expression inhibitor project, luminescence, BacTiterGlo (AID 1915); assay type: functional, organism-based;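 also: potency for reduction of bacterial viability or growth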
[17] = molecular target: T2, High affinity choline transporter 1 (Homo sapiens, UniProt Q9GZV3); assay: CHT inhibitors, dose response, cell-based, 5-point CRC, membrane potential dye (AID 504840); assay type: functional
T2 sequence (Q9GZV3 whole entry): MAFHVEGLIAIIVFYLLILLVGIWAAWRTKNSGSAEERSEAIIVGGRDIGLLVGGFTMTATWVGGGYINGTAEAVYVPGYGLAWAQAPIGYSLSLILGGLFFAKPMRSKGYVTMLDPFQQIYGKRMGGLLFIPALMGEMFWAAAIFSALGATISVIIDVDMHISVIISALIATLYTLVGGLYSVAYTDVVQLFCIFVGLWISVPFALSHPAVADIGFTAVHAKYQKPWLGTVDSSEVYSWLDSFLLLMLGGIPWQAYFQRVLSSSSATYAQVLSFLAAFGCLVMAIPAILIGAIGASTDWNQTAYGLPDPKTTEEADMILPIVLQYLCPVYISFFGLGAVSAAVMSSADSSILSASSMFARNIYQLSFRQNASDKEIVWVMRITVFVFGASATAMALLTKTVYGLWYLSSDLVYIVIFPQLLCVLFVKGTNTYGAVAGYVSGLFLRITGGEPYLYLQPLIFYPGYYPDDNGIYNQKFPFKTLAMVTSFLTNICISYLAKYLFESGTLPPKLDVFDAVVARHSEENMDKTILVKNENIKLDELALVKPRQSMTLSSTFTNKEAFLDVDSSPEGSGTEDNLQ

Streptokinase A = molecular target: T3, Streptokinase A (Streptococcus pyogenes serotype M1, UniProt P10520); assay: S. pyogenes streptokinase expression inhibitors, potency, dose response, plasminogen activation absorbance, OD405 (AID 1914); assay type: functional, Streptococcus pyogenes M1 GAS;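 also: secreted streptokinase activity via plasminogen activation per viability signal from cell pellet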
T3 sequence (P10520 whole entry): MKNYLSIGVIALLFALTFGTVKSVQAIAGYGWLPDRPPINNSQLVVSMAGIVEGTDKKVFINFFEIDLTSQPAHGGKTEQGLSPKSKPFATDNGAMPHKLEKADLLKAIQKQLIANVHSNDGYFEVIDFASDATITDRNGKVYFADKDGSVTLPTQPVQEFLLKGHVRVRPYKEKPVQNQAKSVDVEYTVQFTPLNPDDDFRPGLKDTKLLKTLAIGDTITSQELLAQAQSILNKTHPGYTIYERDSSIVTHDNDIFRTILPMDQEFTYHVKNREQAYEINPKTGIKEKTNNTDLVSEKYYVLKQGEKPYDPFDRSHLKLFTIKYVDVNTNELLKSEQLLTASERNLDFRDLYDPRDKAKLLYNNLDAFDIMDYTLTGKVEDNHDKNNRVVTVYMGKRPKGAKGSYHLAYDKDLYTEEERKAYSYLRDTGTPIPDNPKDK

Caspase-3 = molecular target: T4, Caspase-3 (Homo sapiens, UniProt P42574); assay type: functional;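 also: Dose-response selectivity test against caspase-3 for candidate inhibitors of sentrin-specific proteases (SENPs)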
T4 sequence (P42574 whole entry): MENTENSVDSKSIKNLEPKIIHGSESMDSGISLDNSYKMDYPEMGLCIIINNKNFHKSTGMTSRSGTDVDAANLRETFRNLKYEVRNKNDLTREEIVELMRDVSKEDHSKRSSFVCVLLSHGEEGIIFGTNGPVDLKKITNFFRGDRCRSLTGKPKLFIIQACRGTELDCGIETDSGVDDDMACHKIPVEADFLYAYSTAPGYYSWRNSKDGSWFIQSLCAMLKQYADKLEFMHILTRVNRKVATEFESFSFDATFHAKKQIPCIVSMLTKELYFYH

[18] = molecular target: T5, Sentrin-specific protease 6 (Homo sapiens, UniProt Q9GZR1); assay type: functional;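 also: Luminescence-based dose-response confirmatory assay of SENP6 inhibition, following up an ultra-high-throughput screen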
T5 sequence (Q9GZR1 whole entry): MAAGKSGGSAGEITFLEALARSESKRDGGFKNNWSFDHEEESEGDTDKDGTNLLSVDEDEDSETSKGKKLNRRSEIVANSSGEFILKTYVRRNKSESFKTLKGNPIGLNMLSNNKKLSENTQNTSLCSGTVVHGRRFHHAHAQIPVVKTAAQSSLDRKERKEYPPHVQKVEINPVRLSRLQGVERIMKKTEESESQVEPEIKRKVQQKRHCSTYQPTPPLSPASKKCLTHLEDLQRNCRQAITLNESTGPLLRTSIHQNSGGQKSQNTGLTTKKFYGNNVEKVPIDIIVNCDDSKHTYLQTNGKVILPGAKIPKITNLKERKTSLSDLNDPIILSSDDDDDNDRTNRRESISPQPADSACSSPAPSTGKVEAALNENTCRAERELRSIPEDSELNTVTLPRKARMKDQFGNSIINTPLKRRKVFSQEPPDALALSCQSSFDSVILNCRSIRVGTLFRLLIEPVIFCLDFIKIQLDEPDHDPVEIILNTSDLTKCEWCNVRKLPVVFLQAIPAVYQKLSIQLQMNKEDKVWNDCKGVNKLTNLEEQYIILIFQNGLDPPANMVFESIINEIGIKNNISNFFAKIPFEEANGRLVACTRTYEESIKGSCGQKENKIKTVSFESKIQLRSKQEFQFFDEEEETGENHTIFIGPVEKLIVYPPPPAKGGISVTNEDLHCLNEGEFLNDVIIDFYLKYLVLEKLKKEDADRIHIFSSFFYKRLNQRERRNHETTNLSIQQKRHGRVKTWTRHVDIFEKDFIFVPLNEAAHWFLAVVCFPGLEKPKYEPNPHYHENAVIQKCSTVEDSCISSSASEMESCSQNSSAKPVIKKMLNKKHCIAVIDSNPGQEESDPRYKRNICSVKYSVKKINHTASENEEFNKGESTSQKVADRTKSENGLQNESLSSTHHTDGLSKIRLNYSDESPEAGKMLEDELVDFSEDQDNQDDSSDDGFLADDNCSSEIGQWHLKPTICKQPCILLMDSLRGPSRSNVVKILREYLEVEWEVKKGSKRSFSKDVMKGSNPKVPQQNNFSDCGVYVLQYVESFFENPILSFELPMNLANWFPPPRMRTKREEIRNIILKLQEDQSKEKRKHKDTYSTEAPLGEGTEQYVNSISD

[19] = molecular target: T6, Sentrin-specific protease 7 (Homo sapiens, UniProt Q9BQF6); assay type: functional;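 also: Luminescence-based dose-response confirmation of ultra-high-throughput screening hits, measuring inhibition of SENP7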
T6 sequence (Q9BQF6 whole entry): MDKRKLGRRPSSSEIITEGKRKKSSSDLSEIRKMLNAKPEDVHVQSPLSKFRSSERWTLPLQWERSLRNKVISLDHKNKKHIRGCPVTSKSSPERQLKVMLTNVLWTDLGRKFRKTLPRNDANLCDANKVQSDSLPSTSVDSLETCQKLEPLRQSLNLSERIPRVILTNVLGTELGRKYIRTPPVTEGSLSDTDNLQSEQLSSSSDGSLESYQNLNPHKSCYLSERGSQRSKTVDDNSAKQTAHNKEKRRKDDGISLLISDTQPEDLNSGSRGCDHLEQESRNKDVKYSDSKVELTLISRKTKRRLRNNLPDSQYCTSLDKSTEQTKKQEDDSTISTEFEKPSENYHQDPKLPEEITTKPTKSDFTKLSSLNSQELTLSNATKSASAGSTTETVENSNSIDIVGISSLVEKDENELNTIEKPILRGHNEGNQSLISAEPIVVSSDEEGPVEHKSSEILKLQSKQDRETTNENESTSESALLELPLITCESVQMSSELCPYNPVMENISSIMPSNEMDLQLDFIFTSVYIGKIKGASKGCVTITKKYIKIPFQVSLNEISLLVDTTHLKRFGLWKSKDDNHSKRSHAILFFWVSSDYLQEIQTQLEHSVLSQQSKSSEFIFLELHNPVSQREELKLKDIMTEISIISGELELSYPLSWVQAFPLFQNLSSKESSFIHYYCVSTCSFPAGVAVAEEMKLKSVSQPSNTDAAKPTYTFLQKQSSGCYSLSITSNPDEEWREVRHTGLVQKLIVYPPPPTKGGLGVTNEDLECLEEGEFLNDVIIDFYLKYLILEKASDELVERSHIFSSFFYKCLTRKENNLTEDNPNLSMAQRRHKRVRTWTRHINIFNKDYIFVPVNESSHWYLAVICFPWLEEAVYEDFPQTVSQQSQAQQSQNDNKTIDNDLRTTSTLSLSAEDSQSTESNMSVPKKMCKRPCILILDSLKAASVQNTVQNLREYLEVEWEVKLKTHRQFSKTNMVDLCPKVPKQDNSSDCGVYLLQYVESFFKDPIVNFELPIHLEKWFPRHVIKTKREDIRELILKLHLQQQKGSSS

[20] = HEp-2 cell cytotoxicity, dose response, cytotoxicity control for RSV inhibitor project, HTS (AID 2410); assay type: functional; details: human respiratory syncytial virus
[21] = molecular target: T7, Sentrin-specific protease 8 (Homo sapiens, UniProt Q96LD8); assay type: functional;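 also: luminescence read-out of SENP8 inhibition, dose-response confirmation following an ultra-high-throughput screen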
T7 sequence (Q96LD8 whole entry): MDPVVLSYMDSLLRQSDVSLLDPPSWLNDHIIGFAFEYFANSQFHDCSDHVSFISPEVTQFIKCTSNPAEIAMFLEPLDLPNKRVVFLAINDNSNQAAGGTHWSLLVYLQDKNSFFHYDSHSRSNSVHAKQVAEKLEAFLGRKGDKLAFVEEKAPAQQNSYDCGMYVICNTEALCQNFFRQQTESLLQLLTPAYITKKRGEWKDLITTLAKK

T1 sequence (P49327 whole entry, the tested form may be a part): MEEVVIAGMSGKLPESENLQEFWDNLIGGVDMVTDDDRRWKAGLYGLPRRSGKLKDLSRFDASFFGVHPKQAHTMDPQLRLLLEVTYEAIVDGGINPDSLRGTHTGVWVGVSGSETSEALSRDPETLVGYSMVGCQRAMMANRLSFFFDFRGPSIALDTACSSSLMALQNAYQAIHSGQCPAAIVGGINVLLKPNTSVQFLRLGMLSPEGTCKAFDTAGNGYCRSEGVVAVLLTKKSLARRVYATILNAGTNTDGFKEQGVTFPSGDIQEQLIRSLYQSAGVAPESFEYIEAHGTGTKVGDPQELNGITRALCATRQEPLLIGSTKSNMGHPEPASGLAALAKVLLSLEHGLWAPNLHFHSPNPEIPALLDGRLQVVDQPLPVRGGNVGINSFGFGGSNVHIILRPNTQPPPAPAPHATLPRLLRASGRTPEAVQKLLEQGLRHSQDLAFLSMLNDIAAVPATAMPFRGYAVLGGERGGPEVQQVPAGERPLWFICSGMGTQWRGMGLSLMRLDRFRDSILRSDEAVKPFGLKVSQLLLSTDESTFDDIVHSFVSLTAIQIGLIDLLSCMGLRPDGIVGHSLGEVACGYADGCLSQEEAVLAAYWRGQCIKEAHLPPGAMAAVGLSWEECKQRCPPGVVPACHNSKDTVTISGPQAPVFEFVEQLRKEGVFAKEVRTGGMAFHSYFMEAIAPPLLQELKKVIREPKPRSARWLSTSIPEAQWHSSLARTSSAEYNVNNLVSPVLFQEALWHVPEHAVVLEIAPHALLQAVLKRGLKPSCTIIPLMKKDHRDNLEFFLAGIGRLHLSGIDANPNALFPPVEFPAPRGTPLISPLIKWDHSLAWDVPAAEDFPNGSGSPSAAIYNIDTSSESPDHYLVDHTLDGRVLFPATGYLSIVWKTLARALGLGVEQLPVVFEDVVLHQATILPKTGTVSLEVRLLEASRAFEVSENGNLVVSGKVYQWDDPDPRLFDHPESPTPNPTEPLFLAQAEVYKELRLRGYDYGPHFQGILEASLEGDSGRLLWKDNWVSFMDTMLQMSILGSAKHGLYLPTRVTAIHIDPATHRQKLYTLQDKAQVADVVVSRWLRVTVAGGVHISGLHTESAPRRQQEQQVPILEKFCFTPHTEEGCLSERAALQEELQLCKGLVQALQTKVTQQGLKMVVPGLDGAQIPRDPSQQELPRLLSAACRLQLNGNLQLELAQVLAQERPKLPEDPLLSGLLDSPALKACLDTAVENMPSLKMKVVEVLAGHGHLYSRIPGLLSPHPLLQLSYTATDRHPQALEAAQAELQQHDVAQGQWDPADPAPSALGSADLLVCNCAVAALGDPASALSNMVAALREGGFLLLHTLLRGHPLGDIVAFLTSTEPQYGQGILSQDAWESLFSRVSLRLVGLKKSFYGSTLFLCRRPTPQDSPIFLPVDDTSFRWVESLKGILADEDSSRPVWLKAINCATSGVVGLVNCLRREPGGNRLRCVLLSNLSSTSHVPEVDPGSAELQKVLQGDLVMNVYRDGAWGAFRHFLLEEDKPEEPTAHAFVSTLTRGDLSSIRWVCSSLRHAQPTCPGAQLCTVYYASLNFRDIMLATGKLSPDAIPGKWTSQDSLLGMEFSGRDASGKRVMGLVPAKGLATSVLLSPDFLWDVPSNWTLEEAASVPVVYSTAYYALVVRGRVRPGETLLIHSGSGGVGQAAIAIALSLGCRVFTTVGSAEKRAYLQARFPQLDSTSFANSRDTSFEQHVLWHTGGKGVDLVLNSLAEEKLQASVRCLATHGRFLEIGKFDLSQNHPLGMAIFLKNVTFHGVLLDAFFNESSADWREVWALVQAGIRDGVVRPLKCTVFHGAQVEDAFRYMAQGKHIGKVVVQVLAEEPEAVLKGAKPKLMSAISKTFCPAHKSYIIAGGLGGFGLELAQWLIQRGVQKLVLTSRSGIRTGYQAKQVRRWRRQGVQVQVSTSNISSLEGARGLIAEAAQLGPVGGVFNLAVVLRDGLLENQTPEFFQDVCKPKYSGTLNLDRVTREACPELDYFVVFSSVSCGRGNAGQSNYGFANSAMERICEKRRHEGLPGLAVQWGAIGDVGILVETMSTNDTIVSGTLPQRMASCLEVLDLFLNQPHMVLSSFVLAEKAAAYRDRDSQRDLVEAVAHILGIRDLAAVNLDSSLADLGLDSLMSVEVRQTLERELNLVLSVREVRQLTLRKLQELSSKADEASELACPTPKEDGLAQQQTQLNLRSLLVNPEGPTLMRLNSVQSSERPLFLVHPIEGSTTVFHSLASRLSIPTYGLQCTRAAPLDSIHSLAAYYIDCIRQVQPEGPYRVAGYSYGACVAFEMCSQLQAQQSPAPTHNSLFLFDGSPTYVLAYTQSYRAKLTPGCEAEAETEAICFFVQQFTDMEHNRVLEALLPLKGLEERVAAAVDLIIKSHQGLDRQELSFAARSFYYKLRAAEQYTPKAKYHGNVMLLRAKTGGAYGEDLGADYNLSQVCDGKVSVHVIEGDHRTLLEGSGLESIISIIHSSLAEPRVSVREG
Chain of Luciferin 4-monooxygenase (P08659 whole entry): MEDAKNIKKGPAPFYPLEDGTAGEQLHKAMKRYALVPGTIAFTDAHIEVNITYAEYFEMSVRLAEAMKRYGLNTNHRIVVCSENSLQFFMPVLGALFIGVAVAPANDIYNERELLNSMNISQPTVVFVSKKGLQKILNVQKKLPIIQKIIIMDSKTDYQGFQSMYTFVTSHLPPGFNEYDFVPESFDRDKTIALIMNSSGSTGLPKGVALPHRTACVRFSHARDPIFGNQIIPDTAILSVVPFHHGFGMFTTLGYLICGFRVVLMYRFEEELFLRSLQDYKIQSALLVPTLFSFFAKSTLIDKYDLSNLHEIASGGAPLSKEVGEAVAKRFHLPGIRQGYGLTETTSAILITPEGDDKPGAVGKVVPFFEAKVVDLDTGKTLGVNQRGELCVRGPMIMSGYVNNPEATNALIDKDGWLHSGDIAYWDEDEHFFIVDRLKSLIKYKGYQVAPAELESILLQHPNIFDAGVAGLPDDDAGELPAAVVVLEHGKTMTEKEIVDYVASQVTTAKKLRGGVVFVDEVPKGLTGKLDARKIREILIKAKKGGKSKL
Chain of Large T antigen (P03070 whole entry): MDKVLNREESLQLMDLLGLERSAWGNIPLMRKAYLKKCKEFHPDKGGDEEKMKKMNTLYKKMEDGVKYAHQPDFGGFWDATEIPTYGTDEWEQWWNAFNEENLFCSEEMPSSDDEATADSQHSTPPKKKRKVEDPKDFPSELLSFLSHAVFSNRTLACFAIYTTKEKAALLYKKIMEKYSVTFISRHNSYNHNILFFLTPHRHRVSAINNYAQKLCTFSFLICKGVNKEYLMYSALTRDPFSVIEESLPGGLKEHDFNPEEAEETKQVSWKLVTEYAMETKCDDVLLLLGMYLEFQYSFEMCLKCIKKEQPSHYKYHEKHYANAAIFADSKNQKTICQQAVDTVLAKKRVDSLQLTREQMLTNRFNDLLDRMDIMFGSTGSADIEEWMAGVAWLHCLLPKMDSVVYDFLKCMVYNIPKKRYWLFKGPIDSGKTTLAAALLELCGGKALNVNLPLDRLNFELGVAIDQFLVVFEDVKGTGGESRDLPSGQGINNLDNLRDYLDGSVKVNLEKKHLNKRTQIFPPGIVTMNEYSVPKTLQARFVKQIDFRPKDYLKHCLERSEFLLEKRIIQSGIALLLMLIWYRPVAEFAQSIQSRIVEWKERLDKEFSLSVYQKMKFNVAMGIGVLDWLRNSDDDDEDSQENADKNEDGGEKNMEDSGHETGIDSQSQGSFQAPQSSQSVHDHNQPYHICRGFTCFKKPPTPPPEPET
Chain of Paired box protein Pax-8 (Q06710 whole entry): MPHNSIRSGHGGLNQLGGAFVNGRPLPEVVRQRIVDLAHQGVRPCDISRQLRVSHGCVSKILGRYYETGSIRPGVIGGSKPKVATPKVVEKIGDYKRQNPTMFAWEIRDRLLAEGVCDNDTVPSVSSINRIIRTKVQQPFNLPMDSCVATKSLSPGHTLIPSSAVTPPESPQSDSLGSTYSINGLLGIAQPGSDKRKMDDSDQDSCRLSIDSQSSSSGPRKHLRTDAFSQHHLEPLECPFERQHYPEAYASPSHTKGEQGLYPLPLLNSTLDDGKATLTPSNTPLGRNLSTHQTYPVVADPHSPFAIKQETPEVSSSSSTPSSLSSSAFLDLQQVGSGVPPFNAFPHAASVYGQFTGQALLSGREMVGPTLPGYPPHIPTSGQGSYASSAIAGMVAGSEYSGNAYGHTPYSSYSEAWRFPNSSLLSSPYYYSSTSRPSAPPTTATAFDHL
Chain of Genome polyprotein (P29990 2492-3391 limits assumed): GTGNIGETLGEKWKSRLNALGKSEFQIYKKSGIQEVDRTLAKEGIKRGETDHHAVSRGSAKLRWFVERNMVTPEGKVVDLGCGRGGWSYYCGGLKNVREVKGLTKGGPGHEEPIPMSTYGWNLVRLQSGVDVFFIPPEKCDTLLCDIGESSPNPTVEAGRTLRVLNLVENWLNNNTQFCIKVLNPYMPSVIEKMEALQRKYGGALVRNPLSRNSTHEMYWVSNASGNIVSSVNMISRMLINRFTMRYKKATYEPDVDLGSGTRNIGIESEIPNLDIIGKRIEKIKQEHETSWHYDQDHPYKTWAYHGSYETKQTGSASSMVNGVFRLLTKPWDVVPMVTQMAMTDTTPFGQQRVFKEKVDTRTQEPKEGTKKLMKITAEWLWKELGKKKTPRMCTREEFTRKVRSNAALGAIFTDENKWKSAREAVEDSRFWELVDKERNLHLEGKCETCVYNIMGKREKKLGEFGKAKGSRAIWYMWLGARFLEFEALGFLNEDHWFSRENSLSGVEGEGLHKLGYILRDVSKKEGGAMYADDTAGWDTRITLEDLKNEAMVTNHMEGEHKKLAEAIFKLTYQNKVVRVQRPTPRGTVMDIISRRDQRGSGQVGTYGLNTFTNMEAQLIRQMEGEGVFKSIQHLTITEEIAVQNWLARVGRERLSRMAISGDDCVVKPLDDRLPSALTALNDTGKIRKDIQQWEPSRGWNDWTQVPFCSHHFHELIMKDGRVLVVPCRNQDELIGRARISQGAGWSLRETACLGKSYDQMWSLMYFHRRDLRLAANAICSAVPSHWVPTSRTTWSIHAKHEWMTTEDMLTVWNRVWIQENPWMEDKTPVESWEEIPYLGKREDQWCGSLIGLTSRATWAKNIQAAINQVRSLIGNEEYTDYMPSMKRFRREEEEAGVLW

Compound: O=C(CCCN1C(=O)/C(=C/c2cccc(Br)c2)SC1=S)NCCCN1CCOCC1
- EC50 (BJ [1]): > 150 µM (not active)
- EC50 (BJ [2]): > 133 µM (inactive)
- EC50 (BJ [3]): 2.78 µM (inconclusive)
- CC50 (Vero [4]): > 25 µM (active)
- EC50 [5]: 17.1 µM (active)
- EC50 (BJ [6]): 14.7 µM (active)

Compound: O=[N+]([O-])c1c(Nc2cccc(O)c2)cc(Cl)c2nonc12
- AC50 (HEK293): 3.64 µM (active)
- EC50 (BJ [1]): 4.25 µM (inconclusive)
- EC50 [7]: 7.24 µM (active)
- EC50 (BJ [2]): 0.585 µM (active)
- AC50 [8]: 0.683 µM (active)
- IC50 (Fatty acid synthase [9]): 3.24 µM (active)
- AC50 [10]: 5.66 µM (active)
- EC50 (BJ [3]): 2.6 µM (active)
- CC50 (Vero [11]): 33.7 µM (active)
- EC50 [12]: > 112 µM (not active)
- EC50 [5]: 5.13 µM (active)
- AC50 (Paired box protein Pax-8): 7.24 µM (active)
- IC50 (Genome polyprotein): 26.2 µM (active)
- AC50 [13]: 22.6 µM (active)
- IC50 (Fatty acid synthase [14]): 5.29 µM (active)
- EC50 (BJ [6]): 5.62 µM (inconclusive)
- IC50 (Large T antigen): 47.8 µM (active)
- EC50 [15]: 4.14 µM (active)
- AC50 [16]: 12.5 µM (active)
- EC50 (Streptococcus): 10.5 µM (active)
- IC50 [17]: 10.5 µM (active)
- EC50 (Streptokinase A): 5.58 µM (active)

Compound: O=C(c1cc(-c2ccc(Cl)cc2Cl)on1)N1CCCCCC1
- IC50 (Caspase-3): 17.2 µM (active)
- IC50 [18]: 18.5 µM (active)
- IC50 [19]: 6.51 µM (active)
- CC50 [20]: 39.3 µM (active)
- IC50 [21]: 20.5 µM (active)

Compound: CCCCOC(=O)Nc1ccc2c(C)cc(=O)oc2c1
- IC50 (Caspase-3): 7.45 µM (active)
- IC50 [18]: 8.26 µM (active)
- IC50 [19]: 4.58 µM (active)
- IC50 [21]: 12.7 µM (active)
